Experimental data as given in US11911396B2, “Use of compound in preparation of drug for treating cerebral small vessel disease” (GUANGZHOU CELLPROTEK PHARMACEUTICAL CO., LTD, priority 2017, dated 2024).

Key:
free hemoglobin = assay: Immunofluorescence of extravascular free hemoglobin in prefrontal cortex brain tissue, acute hypobaric hypoxia model; assay type: in vivo, cynomolgus monkeys (Macaca fascicularis); conditions: 7500 meters for 48 hours, compared with acute hypobaric hypoxia group, FIG. 1
From the text: FIG. 1. Acute hypobaric hypoxia caused an increase in extravascular distribution of free hemoglobin in the brain tissue of the prefrontal cortex of cynomolgus monkeys (Macaca fascicularis). […] B. MFI (Mean Fluorescence Intensity) was quantified using Nikon NIS-Element software. The statistics of the relative fluorescence intensity of free hemoglobin distributed extravascularly in the brain tissue of cynomolgus monkeys was shown, and one-way ANOVA analysis and Dunnutt's t test were used to perform statistical tests, **, p<0.01, ns, no statistical difference, n=4. NN: Normobaric Normoxia group; HH: Hypobaric Hypoxia group; HH+Triol: Hypobaric Hypoxia with Triol administration group; HH+PROG: Hypobaric Hypoxia with control drug administration group. PROG represents the control drug progesterone.
The thickness of paraffin sections was 5 μm. For fresh paraffin sections, the sections were dried at 37° C. overnight and then dried at 55° C. for 30 minutes. The sections were quickly placed in xylene for dewaxing. […] NIS-Elements Analysis software was used to analyze the fluorescence intensity of confocal images, which was then normalized with the fluorescence intensity per unit area according to the built-in scale. […]

IL-1β = assay: Western blot of IL-1β in prefrontal cortex brain tissue, acute hypobaric hypoxia model; assay type: in vivo, cynomolgus monkeys; conditions: FIGS. 3A and 3B
From the text: FIG. 3. […] A. Protein expression of inflammatory factors IL-6, IL-1β and TNF-α in the brain tissue of the prefrontal cortex of cynomolgus monkeys; B. Statistics of protein relative gray scan values. NN: Normobaric Normoxia group (N=3); HH: Hypobaric Hypoxia group (N=3); HH+Triol: Hypobaric Hypoxia with Triol administration group (N=3); HH+PROG: Hypobaric Hypoxia with control drug administration group (N=3). The gray value was obtained by scanning with Image Lab software, and the relative value was obtained after normalizing with α-Tubulin. One-way ANOVA analysis and Dunnutt's t test were used to perform statistical tests, and in the latter each group was compared with the HH group, *, p<0.05; **, p<0.01.
1) Preparation of protein samples (see the instructions of M-PER protein lysate): After the cells had been processed for the specified time, the medium was aspirated and then washed with 4° C. pre-chilled PBS (0.01M pH7.2˜7.3) for 3 times. […] 2) BCA protein quantification (see the instructions of BCA protein quantification kit): corresponding components were added to a 96-well detection plate by the ratio of quantification reagent A solution:B solution:ddH2O:protein=100:2:7.5:5, and albumin standards diluted in gradient concentration were added to draw a standard curve. […] After the reaction, the absorbance of each well at a wavelength of 562 nm was detected using a microplate reader. […]

## C[C@@]12CCCC1C1C[C@@H](O)[C@@]3(O)C[C@@H](O)CC[C@]3(C)C1CC2 (stereo partly drawn) [Triol, 5α-androst-3β,5,6β-triol]
Free hemoglobin
  distribution of extravascular free hemoglobin: significantly reduced
IL-1β
  expression level of IL-1β: significantly reduced
